Experimental data as given in patent US10213415B2, “Compounds as opioid receptor modulators” (JANSSEN PHARMACEUTICA NV, priority 2004, dated 2019).
Where “and” joins values, the source holds several entries; their conditions need not be identical. Equal values may be shown once. Read-outs that look alike come from different tables or passages of the source.

Key:
human mu opioid receptor = biological target: T1, human mu opioid receptor (Homo sapiens, UniProt P35372); assay: Human Mu Opioid Receptor Binding Assay (CHO membranes, 3H-Damgo); conditions: read-out: hKi μ
T1 construct: purchased Perkin Elmer RBHOMM400UA; host or cells: Chinese Hamster Ovary cells (recombinant expression)
Summary of the method: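 Membranes from CHO cells expressing human mu opioid receptor, 300 μg/mL, in 50 mM Tris pH 7.5, 5 mM MgCl2. Incubated with compound and ³H-Damgo (3.6 nM before mixing) for 2 h at room temperature, filtered, counted by scintillation. Nonspecific binding with 1 μM unlabelled Damgo.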

[1] = biological target: T2, human delta subtype 2 opioid receptor (Homo sapiens, UniProt P41143); assay: Human Delta Opioid Receptor Binding Assay (CHO membranes, 3H-Naltrindole); conditions: read-out: hKi δ
T2 construct: purchased Perkin Elmer RBHODM400UA; host or cells: Chinese Hamster Ovary cells (recombinant expression)
Experimental: This assay is designed to test the ability of a compound to interfere with the binding of tritiated Naltrindole to the human delta subtype 2 opioid receptor. Membranes from Chinese Hamster Ovary cells expressing the human delta subtype 2 opioid receptor (Perkin Elmer #RBHODM400UA) are homogenized in assay buffer (50 mM Tris, pH 7.5 with 5 mM MgCl2) using a glass tissue grinder, Teflon pestle and a Steadfast Stirrer (Fisher Scientific). The concentration of membranes is adjusted to 100 μg/mL in assay buffer and 100 μL is dispensed into each well of the assay plate, a 96 well round bottom polypropylene plate. Compounds to be tested are solubilized in DMSO (Pierce), 10 mM, then diluted in assay buffer to 6× the desired final concentration. The ligand, ^3H-Naltrindole (Perkin Elmer #NET-1065) is also diluted in assay buffer to 6 nM. In a second 96 well round bottom polypropylene plate, known as the premix plate, 60 μL of the 6× compound is combined with 60 μL of 6 nM ^3H-Naltrindole. From this premix plate 50 μL is transferred to the assay plate containing the membranes, in duplicate. The assay plate is incubated for 30 min at room temperature. A GF/C 96 well filter plate (Perkin Elmer #6005174) is pretreated with 0.3% polyethylenimine for 30 min. The contents of the assay plate are filtered through the filter plate using a Packard Filtermate Harvester, and washed 3 times with 0.9% saline that is 4° C. The filter plate is dried, the underside sealed, and 30 μL Microscint20 (Packard #6013621) added to each well. A Topcount-NXT Microplate Scintillation Counter (Packard) is used to measure emitted energies in the range of 2.9 to 35 KeV. Results are compared to maximum binding, wells receiving no inhibitors. Nonspecific binding is determined in the presence of 1 μM unlabelled Naltrindole (Sigma #N115).

[2] = test system: novel environment-stressed mice; assay: In Vivo Assay-Stress-Induced Fecal Output (Fecal Output for 1 hr); design: species or system mouse; conditions: for Fecal Output (# pellets) cpd: novel environment-stressed mice; for Fecal Output (# pellets) cpd / response vs control in vivo at 30 mg/kg / response vs control in vivo at 10 mg/kg: 1 hr; for response vs control in vivo at 30 mg/kg / response vs control in vivo at 10 mg/kg: Mus musculus, po, 1 h; for # of pellets, Compound (m) 3.0 / Fecal pellet output, Compound (% control) 3.0 / Fecal pellet output, Compound (% NES) 3.0: dose 3.0, oral; for # of pellets, Compound (m) 3.0 / Fecal pellet output, Compound (% control) 3.0 / # of pellets, Compound (m) 10.0 / Fecal pellet output, Compound (% control) 10.0 / # of pellets, Compound (m) 30.0 / Fecal pellet output, Compound (% control) 30.0: NES mice; for # of pellets, Compound (m) 3.0 / # of pellets, Compound (m) 10.0 / # of pellets, Compound (m) 30.0: fecal output 1 hr; for Fecal pellet output, Compound (% control) 3.0 / Fecal pellet output, Compound (% control) 10.0 / Fecal pellet output, Compound (% control) 30.0: vs acclimated control; for Fecal pellet output, Compound (% NES) 3.0 / Fecal pellet output, Compound (% NES) 10.0 / Fecal pellet output, Compound (% NES) 30: vs vehicle NES group; for # of pellets, Compound (m) 10.0 / Fecal pellet output, Compound (% control) 10.0 / Fecal pellet output, Compound (% NES) 10.0: dose 10.0, oral; for # of pellets, Compound (m) 30.0 / Fecal pellet output, Compound (% control) 30.0: dose 30.0, oral; for Fecal pellet output, Compound (% NES) 30: dose 30, oral
Source text: This assay evaluates the fecal output in novel environment-stressed mice to that of acclimated controls.
Methods: Adult, male, Crl:CD-1(ICR) mice, weighing ˜30-35 g were used in these studies, with a minimum of 10 mice per dose group. One group of mice was assigned as acclimated, or “non-stressed” controls. These control mice were transported from colony housing, where they were housed 3/cage in polycarbonate cages with access to food and water ad lib. to the procedure room. The mice were removed from their home cages and individually housed in 20 cm wide×20 cm deep×15 cm tall cages, equipped with a wire mesh bottom where they remained for a 16-18 hr period of acclimation to their novel environment. Mice were allowed access to food and water ad lib. during acclimation. The other groups of mice were assigned as non-acclimated, or “stressed” treatment groups. Each mouse in each group was weighed and vehicle, or test compound, was intragastrically administered by oral intubation in 0.5% methylcellulose. Mice were allowed access to water only ad lib. during the test period. After compound administrations, acclimated (control) as well as non-acclimated (stressed) mice were individually housed in a 20 cm wide×20 cm deep×15 cm tall cage, with a wire mesh bottom. An absorbant cardboard is placed beneath the cages. The number of fecal pellets excreted by each mouse was determined at hourly intervals following placement of the mice in the individual cages. Raw Data=# of fecal pellets/mouse/hr. […]

[3] = 30 mg/kg oral, relative to acclimated control, read-out: Fecal Output cpd % control
[4] = 30 mg/kg oral, relative to novel environment stress (NES) vehicle group, read-out: Fecal Output cpd % NES

T1 sequence (P35372 whole entry): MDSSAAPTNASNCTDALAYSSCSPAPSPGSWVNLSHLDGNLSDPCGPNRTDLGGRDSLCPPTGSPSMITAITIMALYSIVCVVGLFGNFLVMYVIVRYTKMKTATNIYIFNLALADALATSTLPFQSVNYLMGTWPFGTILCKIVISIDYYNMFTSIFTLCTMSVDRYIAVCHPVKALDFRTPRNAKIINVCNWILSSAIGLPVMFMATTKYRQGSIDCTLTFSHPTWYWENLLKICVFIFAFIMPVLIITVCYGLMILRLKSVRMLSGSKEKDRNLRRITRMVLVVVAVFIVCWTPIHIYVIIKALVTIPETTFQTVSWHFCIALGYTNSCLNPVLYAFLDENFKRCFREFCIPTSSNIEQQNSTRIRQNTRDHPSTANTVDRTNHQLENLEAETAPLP
T2 sequence (P41143 whole entry): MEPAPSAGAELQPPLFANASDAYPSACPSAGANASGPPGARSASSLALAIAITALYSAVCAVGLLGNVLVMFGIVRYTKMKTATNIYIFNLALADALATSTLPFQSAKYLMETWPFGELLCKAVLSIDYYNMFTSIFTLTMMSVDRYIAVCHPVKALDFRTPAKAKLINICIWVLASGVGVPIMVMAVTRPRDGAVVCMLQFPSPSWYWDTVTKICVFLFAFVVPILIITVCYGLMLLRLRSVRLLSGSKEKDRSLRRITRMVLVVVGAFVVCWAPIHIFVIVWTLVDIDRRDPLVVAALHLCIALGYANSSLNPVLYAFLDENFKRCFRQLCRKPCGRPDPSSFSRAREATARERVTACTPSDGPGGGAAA

SMILES	Ki (human mu opioid receptor) [nM]	Ki [1]	Fecal Output (# pellets) cpd ([2]; 30 mg/kg oral) [pellets]	response vs control in vivo at 30 mg/kg [2, 3] [%]	response vs control in vivo at 30 mg/kg [2, 4] [%]	# of pellets, Compound (m) 3.0 [2]	Fecal pellet output, Compound (% control) 3.0 [2]	Fecal pellet output, Compound (% NES) 3.0 [2]	# of pellets, Compound (m) 10.0 [2]	Fecal pellet output, Compound (% control) 10.0 [2]	Fecal pellet output, Compound (% NES) 10.0 [2]	# of pellets, Compound (m) 30.0 [2]	Fecal pellet output, Compound (% control) 30.0 [2]	Fecal pellet output, Compound (% NES) 30 [2]	Fecal Output (# pellets) cpd ([2]; 10 mg/kg oral) [pellets]	response vs control in vivo at 10 mg/kg ([2]; 10 mg/kg oral, relative to acclimated control, read-out: Fecal Output cpd % control) [%]	response vs control in vivo at 10 mg/kg ([2]; 10 mg/kg oral, relative to novel environment stress (NES) vehicle group, read-out: Fecal Output cpd % NES) [%]
Cc1cc(C(N)=O)cc(C)c1C[C@H](N)C(=O)N(C(C)C)[C@@H](CO)c1nc(-c2ccccc2)c[nH]1 [Cpd 85]	5.4	1170 nM	7.9	146	65.8												
Cc1cc(O)cc(C)c1C[C@H](N)C(=O)N(Cc1ccc(Cl)c(Cl)c1)Cc1nc(-c2ccccc2)c[nH]1 [Cpd 87]	12.6	38.9 nM	10.3	141	79.8												
COC(=O)c1ccc(CN(C(=O)[C@@H](N)Cc2c(C)cc(O)cc2C)[C@@H](C)c2nc(-c3ccccc3)c[nH]2)cc1 [Cpd 89]	9.2	19.3 nM	6.4	128	55.2												
Cc1cc(O)cc(C)c1C[C@H](N)C(=O)N(Cc1cccc(C#N)c1)[C@@H](C)c1nc(-c2ccccc2)c[nH]1 [Cpd 91]	4.8	15 nM	8.9	287	69												
Cc1cc(O)cc(C)c1C[C@H](N)C(=O)N(Cc1cccnc1)[C@@H](C)c1nc(-c2ccccc2)c[nH]1 [Cpd 92]	0.25	5.4 nM	9.2	256	82.9												
Cc1cc(O)cc(C)c1C[C@H](N)C(=O)N(Cc1ccccn1)[C@@H](C)c1nc(-c2ccccc2)c[nH]1 [Cpd 93]	0.9	9.5 nM	5.0	139	45	6.2	229.6 % control	74.7 % NES	5.5	203.7 % control	66.27 % NES	3.2	119 % control	38.55 % NES			
Cc1cc(C(N)=O)cc(C)c1C[C@H](N)C(=O)N(Cc1nc(-c2ccccc2)c[nH]1)[C@H](C)c1ccccc1 [Cpd 94]	4.1	403 nM	9.4	348	103												
Cc1cc(C(N)=O)cc(C)c1C[C@H](N)C(=O)N(Cc1nc(-c2ccccc2)c[nH]1)[C@@H](C)c1ccccc1 [Cpd 95]	7.8	278 nM	8.5	315	93.4												
Cc1cc(O)cc(C)c1C[C@H](N)C(=O)N(Cc1c(Cl)cccc1Cl)[C@@H](C)c1nc(-c2ccccc2)c[nH]1 [Cpd 97]	19.2	6.3 nM	4.8	65.8	37.2	14 and 9.1	226.2 % control and 189.6 % control	119 % NES and 90.1 % NES	7.5 and 10.4	123.0 % control and 216.7 % control	64.66 % NES and 103 % NES	3.5 and 2.3	57 % control and 48 % control	30.17 % NES and 22.77 % NES			
COc1ccc(CN(C(=O)[C@@H](N)Cc2c(C)cc(O)cc2C)[C@@H](C)c2nc(-c3ccccc3)c[nH]2)cc1OC [Cpd 102]	3.5	5.2 nM	3.4	59.6	22.7	6.9	130.2 % control	64.5 % NES	4.5	84.9 % control	42.06 % NES	2.22	42 % control	20.77 % NES			
Cc1cc(O)cc(C)c1C[C@H](N)C(=O)N(Cc1ccc(Cl)cc1Cl)[C@@H](C)c1nc(-c2ccccc2)c[nH]1 [Cpd 103]	23	9.7 nM	10.2	140	79.1												
Cc1cc(C(N)=O)cc(C)c1C[C@H](N)C(=O)N(Cc1ccccc1)Cc1nc(-c2ccccc2)c[nH]1 [Cpd 107]	2.95	584 nM	13.1	230	87.3												
Cc1cc(O)cc(C)c1C[C@H](N)C(=O)N(C(C)C)[C@@H](CO)c1nc(-c2ccccc2)c[nH]1 [Cpd 118]	1.04	316 nM and 212 nM	7.2	134	60.2												
Cc1cc(O)cc(C)c1C[C@H](N)C(=O)N(Cc1nc(-c2cccc(C(=O)O)c2)c(C)[nH]1)C(C)C [Cpd 133]	11.5	108 nM	9.9	180	81.8												
Cc1cc(C(N)=O)cc(C)c1C[C@H](N)C(=O)N(C(C)C)[C@@H](C)c1nc(-c2ccccc2)c[nH]1 [Cpd 143]	1.6	69 nM	5.2	69.3	56.5										9.1	246	66.9
Cc1cc(C(N)=O)cc(C)c1C[C@H](N)C(=O)N(C)[C@H](C)c1nc(-c2ccccc2)c[nH]1 [Cpd 144]	1.3	251 nM	11.5	311	84.6												
